Experiments:
[1] = Blood brain barrier PK: plasma and brain levels after iv dosing; type: in vivo, male SD rats; conditions: male rats, 5 mg/kg iv; for BBB penetration: brain level: BQL = below the quantification limit
Experimental: The biodistribution study in plasma and brain tissue was performed using eight-week-old male SD rats (Orient Bio Inc., Seongnam, Korea). Dosing vehicles were composed of DMSO, PEG400, and deionized water (5:40:55, v/v/v). 18i compound was administrated at a dose of 5 mg/kg via intravenous (I.V.). […] Brain tissues were rinsed with saline and four volumes of acetronitrile containing disopyramide were added as an internal standard for LC-MS/MS analysis. The brain samples were homogenized using a sonicator (IKA Labortechnik T10 basic ULTRA-TURRAX, Staufen, Germany) for 10 s on the ice. The plasma samples were added to nine volumes of acetonitrile and vortexed for 5 min. The samples were centrifuged (15,000 RPM, 4 °C, 10 min). The supernatant was collected and analyzed by an LC-MS/MS system.
The LC-MS/MS analysis was performed on an Agilent 1200 series (Agilent Technologies, Santa Clara, CA, USA) with an API 4000 linear ion trap triple quadruple mass spectrometer (AB Sciex, CA, USA). The chromatographic separation of the drug was carried out using a kinetex column (100 × 2.1 mm, 3 μm, Phenomenex, CA USA) with a SecurityGuard C18 guard column (4 mm × 2.0 mm i.d., Phenomenex). The flow rate was 300 µL/min with a mobile phase consisting of 0.1% formic acid in water (eluent A) and 0.1% formic acid in acetonitrile (eluent B) by linear gradient condition as follows: starting with 0 to 0.3 min, B: 5%; 0.3 to 2.5 min, B: 5 → 95%; 2.5 to 2.9 min, B: 95%; 2.9 to 3.0 min, B: 95 → 5%, and then re-equilibrated to initial conditions until 3 min. The total run time was 6 min and the injection volume of 5 μL.

[2] = Liver microsomal stability (human); type: in vitro ADME; conditions: after 30 min incubation, 1 µM
Experimental: For the liver microsomal activity, test compounds were incubated with rat and mouse’s liver microsomes, respectively, at a final concentration of 1 µM, in the presence of an NADPH regeneration system in 0.1 M potassium phosphate buffer (pH 7.4) for […] at 37 °C in shaking incubator. The microsomal reaction was terminated by adding four volumes of ice-cold acetonitrile and then centrifuged at 4000 rpm for 20 min. The supernatant was collected and analyzed by a LC-MS/MS system. The percentage of the parent compound remaining was calculated by comparing peak areas.

CYP3A4 = target: T1, CYP3A4 (Homo sapiens, UniProt P08684); assay: CYP inhibition assay (P450-Glo) CYP3A4; type: in vitro ADME; conditions: P450-Glo CYP3A4 Screening System (CYP enzyme), read-out: CYP inhibition 3A4
T1 construct: purchased Promega Corp. V9920
T1 sequence (P08684 whole entry): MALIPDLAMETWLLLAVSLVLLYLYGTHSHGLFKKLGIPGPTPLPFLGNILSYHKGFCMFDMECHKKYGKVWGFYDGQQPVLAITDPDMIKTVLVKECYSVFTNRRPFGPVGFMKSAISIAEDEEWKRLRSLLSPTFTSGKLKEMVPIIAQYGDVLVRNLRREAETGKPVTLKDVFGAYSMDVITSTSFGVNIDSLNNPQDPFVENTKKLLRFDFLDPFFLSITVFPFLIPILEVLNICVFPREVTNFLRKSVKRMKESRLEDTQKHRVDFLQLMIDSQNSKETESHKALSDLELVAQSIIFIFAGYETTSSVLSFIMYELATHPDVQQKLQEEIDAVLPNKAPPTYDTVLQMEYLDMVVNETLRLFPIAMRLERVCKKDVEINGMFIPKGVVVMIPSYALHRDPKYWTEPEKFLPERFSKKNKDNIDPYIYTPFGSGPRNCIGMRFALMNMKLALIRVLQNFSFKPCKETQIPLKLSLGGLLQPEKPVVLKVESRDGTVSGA
Source text: (§1) Five major screening systems: P450-Glo CYP1A2 Screening System (Catalog# V9770), P450-Glo CYP2C9 Screening System (Catalog# V9790), P450-Glo CYP2C19 (Catalog# V9880), P450-Glo CYP 2D6 (Catalog# V9890), and P450-Glo CYP3A4 (Catalog# V9920) were attained from Promega Corp. (Madison, WI). α-naphthoflavone, sulfaphenazole, amitriptyline, quinidine, and ketoconazole were identified as positive control inhibitors for CYP1A2, CYP2C9, CYP2C19, CYP2D6, and CYP3A4, respectively. The CYP enzyme and substrate were combined in a potassium phosphate (KPO4) buffer and the reaction is initiated by adding an NADPH regenerating system. The volume of the mixture (12.5 μL in a 96-well plate) was combined with an equal volume of test compound solution and positive control inhibitor (12.5 μL added to make the volume 25 μL). The reaction of the NADPH regeneration system was initiated by adding a 2× concentration of NADPH solution. Then an equal volume of luciferin detection reagent was added. The plates were incubated at room temperature for 20 min and the luminescence signal was measured by a microplate reader device.

CYP1A2 = target: T2, CYP1A2 (Homo sapiens, UniProt P05177); assay: CYP inhibition assay (P450-Glo) CYP1A2; type: in vitro ADME; conditions: P450-Glo CYP1A2 Screening System (CYP enzyme), read-out: CYP inhibition 1A2
T2 construct: purchased Promega Corp. V9770
T2 sequence (P05177 1-516): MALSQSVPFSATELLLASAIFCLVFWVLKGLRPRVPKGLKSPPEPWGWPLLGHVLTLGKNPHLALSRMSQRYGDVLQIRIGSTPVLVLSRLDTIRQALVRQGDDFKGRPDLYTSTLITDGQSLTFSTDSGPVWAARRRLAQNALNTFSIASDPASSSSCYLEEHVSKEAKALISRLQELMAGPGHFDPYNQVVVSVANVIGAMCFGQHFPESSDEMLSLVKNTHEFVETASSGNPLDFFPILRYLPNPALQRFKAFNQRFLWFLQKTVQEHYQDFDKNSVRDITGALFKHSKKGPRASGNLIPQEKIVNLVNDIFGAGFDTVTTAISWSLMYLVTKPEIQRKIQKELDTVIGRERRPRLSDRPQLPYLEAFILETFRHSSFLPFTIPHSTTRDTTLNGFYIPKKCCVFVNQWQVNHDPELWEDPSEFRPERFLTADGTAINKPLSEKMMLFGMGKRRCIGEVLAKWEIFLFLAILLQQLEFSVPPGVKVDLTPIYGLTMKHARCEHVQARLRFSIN
Source text: as §1

hERG channel protein = target: T3, hERG channel protein (Homo sapiens, UniProt Q12809); assay: hERG inhibition (Predictor hERG FP binding kit); conditions: at 10 uM
T3 construct: purchased Thermo Fisher Scientific, Inc
T3 sequence (Q12809 whole entry): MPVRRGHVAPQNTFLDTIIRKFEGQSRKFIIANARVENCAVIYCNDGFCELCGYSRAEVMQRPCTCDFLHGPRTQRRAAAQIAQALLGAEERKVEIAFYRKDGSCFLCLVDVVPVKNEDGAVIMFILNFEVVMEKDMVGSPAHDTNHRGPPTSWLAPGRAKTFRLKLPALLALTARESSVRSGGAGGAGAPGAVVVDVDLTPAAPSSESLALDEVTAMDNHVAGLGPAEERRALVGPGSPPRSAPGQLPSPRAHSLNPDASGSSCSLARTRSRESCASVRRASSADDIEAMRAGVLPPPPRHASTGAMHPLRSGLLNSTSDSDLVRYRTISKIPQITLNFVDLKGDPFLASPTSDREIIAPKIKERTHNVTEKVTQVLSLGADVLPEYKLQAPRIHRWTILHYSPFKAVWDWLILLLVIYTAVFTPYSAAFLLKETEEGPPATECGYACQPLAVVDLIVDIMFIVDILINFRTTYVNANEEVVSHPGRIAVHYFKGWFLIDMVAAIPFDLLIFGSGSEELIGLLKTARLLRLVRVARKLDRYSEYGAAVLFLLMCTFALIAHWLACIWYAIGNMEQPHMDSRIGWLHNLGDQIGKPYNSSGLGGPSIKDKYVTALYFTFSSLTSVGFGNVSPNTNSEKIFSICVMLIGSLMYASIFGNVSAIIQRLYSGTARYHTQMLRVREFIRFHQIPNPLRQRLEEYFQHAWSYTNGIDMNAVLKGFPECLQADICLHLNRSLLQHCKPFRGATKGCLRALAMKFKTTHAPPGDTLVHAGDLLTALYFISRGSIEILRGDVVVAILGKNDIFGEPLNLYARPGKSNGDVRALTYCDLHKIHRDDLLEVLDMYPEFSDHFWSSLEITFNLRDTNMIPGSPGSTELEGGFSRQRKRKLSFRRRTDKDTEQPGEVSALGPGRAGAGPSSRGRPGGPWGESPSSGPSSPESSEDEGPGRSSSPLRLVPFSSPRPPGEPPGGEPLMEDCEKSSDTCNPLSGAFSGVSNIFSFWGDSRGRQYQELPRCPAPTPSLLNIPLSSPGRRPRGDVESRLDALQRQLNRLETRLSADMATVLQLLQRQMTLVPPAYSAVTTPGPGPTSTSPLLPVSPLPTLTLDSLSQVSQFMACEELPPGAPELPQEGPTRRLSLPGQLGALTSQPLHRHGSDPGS
Experimental: The inhibition of binding affinity by small molecules was measured using the PredictorTM hERG FP kit (Thermo Fisher Scientific, Inc., Rockford, IL, USA). The procedure was carried out in accordance with the manufacturer's instructions. Briefly, tracer (PredictorTM hERG tracer red) was prepared with dilution in the binding buffer. The binding assay was conducted in 384 well black flat-bottom microplates (Corning Life Sciences, Lowell, MA, USA) after the serial addition of 5 μL of a 4 nM tracer, 5 μL of test compounds, and a 10 μL membrane fraction containing hERG channel protein. The mixtures were incubated at room temperature for 2 h. The fluorescence polarization (FP) was measured with an excitation filter of 530 nm and an emission filter of 585 nm using a microplate reader (Infinite […]; Tecan, Mannedorf, Switzerland).

Cc1ccn(-c2cc(Cl)ccc2[C@@H](Oc2ncnc3c(-c4ccc(C[C@H](N)C(=O)O)cc4)csc23)C(F)(F)F)n1.Cl [Compound 18i, (S)-2-amino-3-(4-(4-((R)-1-(4-chloro-2-(3-methyl-1H-pyrazol-1-yl)phenyl)-2,2,2-trifluoroethoxy)thieno[3,2-d]pyrimidin-7-yl)phenyl)propanoic acid hydrochloride]
concentration at 0.5 h ([1]; SD, rat, plasma, 0.5 h, read-out: BBB penetration: plasma level): 2270 ng/mL
concentration at 3 h ([1]; SD, rat, plasma, 3 h, read-out: BBB penetration: plasma level): 1440 ng/mL
BBB penetration: plasma level ([1]; 0.5 h): Plasma: 0.5 h: 2266 ng/mL
BBB penetration: brain level ([1]; 0.5 h): Brain: 0.5 h: BQL ^a
BBB penetration: plasma level ([1]; 3 h): 3 h: 1439 ng/mL
BBB penetration: brain level ([1]; 3 h): 3 h: BQL
level below the quantification limit (text says plasma) ([1]; time not stated): < 7 ng/mL
Liver microsomal stability (human), parent remained [2]: 99% parent remained after 30 min incubation
inhibition at 10 µM (CYP3A4): 45.3%
inhibition at 10 µM (CYP1A2): 0.1%
Herg inhibition (hERG channel protein): <1% inhibition at 10 uM

— PMC9182086, “Identification of New Non-BBB Permeable Tryptophan Hydroxylase Inhibitors for Treating Obesity and Fatty Liver Disease” (Molecules, 2022)
